The source of these data is patent US20090298878A1, “OXIME COMPOUNDS AND THE USE THEREOF” (priority 2006, published 2009).

Where a name gives a salt, the structure may show the parent alone.

The target in the experiment is T1, N-type calcium channel (NTCC) (Homo sapiens, UniProt Q00975).
T1 construct: host or cells: IMR32 cells differentiated with dibutyryl cAMP and bromodeoxyuridine
The experiment in a line: FLIPR calcium mobilization assay for N-type calcium channel (differentiated IMR32 cells). The format is cell-based. The note with it: about 1.0 μM or less; calcium mobilization and/or electrophysiological assay. The method, then:
Cell maintenance and differentiation. Unless noted otherwise, cell culture reagents were purchased from Mediatech of Hemdon, Md. IMR32 cells (American Type Culture Collection, ATCC, Manassas, Va.) were routinely cultured in growth medium consisting of minimum essential medium containing 10% fetal bovine serum (FBS, Hyclone, Logan, Utah), 100 U/mL penicillin, 100 μg/mL streptomycin, 2 mM L-glutamine, 1 mM sodium pyruvate, and 1× MEM non-essential amino acids. 80-90% confluent flasks of cells were differentiated using the following differentiation medium: Growth medium plus 1 mM dibutyryl cyclic AMP (Sigma, St. Louis, Mo.), and 2.5 μM bromodeoxyuridine (Sigma). Cells were differentiated for 8 days by replacing differentiation medium every 2-3 days.
FLIPR Calcium Mobilization Assay for N-type Calcium Channel. One day prior to performing this assay, differentiated IMR32 cells were treated with 1× CellStripper, and seeded on poly-D-lysine-coated 96-well clear-bottom black plates (Becton Dickinson, Franklin Lakes, N.J.) at 200,000 cells/well. On the day of the assay, the cell plates were washed with IMR32 buffer (127 mM NaCl, 1 mM KCl, 2 mM MgCl2, 700 μM NaH2PO4, 5 mM CaCl2, 5 mM NaHCO3, 8 mM HEPES, 10 mM glucose, pH 7.4), then pre-stimulated with KCl and loaded as follows: 0.05 mL of IMR32 buffer, 0.05 mL of each compound tested diluted in IMR32 buffer containing 20 μM nitrendipine (Sigma), and 0.1 mL KCl dissolved in IMR32 buffer, plus Fluo-4 were added (3 μM final concentration, Molecular Probes, Eugene, Oreg.). Final test compound concentrations ranged from about 846 pM to about 17 μM, final nitrendipine concentration was 5 μM, and final KCl concentration was 90 mM. After 1 hour, the cells were washed twice with 0.05 mL of each compound tested in nitrendipine-containing IMR32 buffer (no KCl or Fluo-4), and then replaced with 0.1 mL of each compound tested in nitrendipine-containing IMR32 buffer. Plates were then transferred to a Fluorimetric imaging Plate Reader (FLIPR^96, Molecular Devices, Inc., Sunnyvale, Calif.) for assay. The FLIPR measured basal Fluo-4 fluorescence for 315 seconds (i.e., 5 minutes and 15 seconds), then added 0.1 mL KCl agonist dissolved in IMR32 buffer and measured fluorescence for another 45 seconds. Final test compound concentrations on the cells after FLIPR read ranged from about 846 pM to about 17 μM, final nitrendipine concentration was 5 μM, and final KCl concentration was 90 mM. Data were collected over the entire time course and analyzed using Excel, Graph Pad Prism (version 3.02, Graph Pad, San Diego, Calif.), or an in-house non-linear regression analysis software.
In general terms: A change in cytosolic calcium serves as a functional read-out for many receptors and channels.

T1 sequence (Q00975 whole entry): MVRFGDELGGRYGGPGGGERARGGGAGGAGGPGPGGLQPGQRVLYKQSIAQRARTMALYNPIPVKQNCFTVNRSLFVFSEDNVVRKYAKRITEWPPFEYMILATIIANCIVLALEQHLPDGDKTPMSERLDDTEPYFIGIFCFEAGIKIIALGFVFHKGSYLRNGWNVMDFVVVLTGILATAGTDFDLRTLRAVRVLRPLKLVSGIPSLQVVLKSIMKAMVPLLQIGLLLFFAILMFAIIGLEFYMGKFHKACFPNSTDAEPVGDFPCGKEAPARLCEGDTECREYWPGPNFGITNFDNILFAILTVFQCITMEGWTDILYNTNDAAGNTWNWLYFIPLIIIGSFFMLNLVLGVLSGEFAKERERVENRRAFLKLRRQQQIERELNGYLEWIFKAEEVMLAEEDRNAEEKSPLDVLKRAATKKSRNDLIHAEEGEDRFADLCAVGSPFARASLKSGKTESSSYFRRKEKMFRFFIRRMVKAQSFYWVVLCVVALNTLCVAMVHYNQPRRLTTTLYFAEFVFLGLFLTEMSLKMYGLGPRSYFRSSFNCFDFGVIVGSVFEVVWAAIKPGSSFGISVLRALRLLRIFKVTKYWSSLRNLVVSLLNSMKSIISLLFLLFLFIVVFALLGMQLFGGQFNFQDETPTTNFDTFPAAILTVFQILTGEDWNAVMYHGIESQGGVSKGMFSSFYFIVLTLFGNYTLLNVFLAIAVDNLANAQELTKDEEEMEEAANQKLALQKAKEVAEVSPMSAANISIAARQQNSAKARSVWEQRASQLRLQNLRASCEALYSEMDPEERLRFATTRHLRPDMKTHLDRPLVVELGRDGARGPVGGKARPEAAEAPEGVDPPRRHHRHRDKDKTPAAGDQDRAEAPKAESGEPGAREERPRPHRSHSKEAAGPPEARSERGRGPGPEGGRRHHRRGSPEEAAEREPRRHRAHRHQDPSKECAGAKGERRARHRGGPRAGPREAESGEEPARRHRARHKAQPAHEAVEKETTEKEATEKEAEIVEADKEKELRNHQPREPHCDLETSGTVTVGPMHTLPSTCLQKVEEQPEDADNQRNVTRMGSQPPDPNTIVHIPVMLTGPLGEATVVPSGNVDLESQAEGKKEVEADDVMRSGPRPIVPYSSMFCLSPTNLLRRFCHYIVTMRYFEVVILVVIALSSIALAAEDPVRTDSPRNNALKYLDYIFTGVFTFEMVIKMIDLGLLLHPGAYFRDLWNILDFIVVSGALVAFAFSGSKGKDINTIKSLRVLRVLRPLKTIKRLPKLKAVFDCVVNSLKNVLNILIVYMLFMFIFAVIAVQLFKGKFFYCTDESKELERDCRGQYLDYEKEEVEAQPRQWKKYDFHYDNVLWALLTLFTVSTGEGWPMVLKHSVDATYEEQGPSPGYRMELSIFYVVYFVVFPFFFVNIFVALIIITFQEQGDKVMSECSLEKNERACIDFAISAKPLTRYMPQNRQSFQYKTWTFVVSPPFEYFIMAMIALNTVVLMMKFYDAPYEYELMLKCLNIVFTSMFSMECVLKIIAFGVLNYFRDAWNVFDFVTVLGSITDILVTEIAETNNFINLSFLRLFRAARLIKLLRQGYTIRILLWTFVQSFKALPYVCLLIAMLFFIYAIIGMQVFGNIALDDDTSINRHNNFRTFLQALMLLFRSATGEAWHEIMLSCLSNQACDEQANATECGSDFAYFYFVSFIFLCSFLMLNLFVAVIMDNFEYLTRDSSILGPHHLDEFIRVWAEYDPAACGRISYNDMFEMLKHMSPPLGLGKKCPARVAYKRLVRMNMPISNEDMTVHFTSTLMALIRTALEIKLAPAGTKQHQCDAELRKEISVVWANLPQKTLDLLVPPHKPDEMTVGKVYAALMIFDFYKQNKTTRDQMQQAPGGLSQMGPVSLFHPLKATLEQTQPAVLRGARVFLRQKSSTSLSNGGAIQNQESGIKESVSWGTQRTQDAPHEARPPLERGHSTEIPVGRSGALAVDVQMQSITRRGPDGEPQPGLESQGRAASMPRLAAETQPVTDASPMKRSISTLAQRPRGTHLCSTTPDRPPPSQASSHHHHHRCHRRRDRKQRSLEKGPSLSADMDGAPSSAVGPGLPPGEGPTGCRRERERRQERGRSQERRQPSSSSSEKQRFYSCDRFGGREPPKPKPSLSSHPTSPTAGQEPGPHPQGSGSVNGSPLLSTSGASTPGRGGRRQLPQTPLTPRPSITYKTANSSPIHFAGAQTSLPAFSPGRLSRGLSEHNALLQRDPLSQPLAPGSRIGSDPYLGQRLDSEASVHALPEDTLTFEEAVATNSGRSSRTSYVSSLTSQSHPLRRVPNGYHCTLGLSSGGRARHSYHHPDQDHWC

As a reminder, the IC50 is the concentration that gives 50% inhibition. For the molecule `O=C(CCC(c1ccc(F)cc1)c1ccc(F)cc1)N1CCC(=NOCc2cccc(C(F)(F)F)c2)CC1` [Example 29, 1-[4,4-Bis-(4-fluorophenyl)butyryl]piperidin-4-one O-(3-trifluoromethylbenzyl)oxime], the IC50 was at most 1000 nM.

Turning to `O=C(CCC(c1ccc(F)cc1)c1ccc(F)cc1)N1CCC(=NOCc2ccccc2)CC1` [Example 31, 1-[4,4-Bis-(4-fluorophenyl)butyryl]piperidin-4-one O-benzyloxime], the concentration for half-maximal inhibition (IC50) was at most 1000 nM.

Turning to `O=C(CCN1CCC(c2ccccc2)CC1)N1CCC(=NOCc2cccc(C(F)(F)F)c2)CC1` [Example 47, 1-[3-(4-Phenylpiperidin-1-ylpropionyl]piperidin-4-one O-(3-trifluoromethylbenzyl)oxime hydrochloride], the half-inhibitory concentration (IC50) is at most 1000 nM.

On to `O=C(CCN1CCC(Cc2ccccc2)CC1)N1CCC(=NOCc2cccc(C(F)(F)F)c2)CC1` [Example 48, 1-[3-(4-Benzylpiperidin-1-yl)propionyl]piperidin-4-one O-(3-trifluoromethylbenzyl)oxime hydrochloride], for which the 50% inhibitory concentration (IC50) was at most 1000 nM.

With `O=S(=O)(c1ccccc1)N1CCC(=NOCc2cccc(C(F)(F)F)c2)CC1` [Example 51, 1-Benzenesulfonylpiperidin-4-one O-(3-trifluoromethylbenzyl)oxime], the IC50 is at most 1000 nM.

Turning to `N#Cc1ccc(S(=O)(=O)N2CCC(=NOCc3cccc(C(F)(F)F)c3)CC2)cc1` [Example 53, 4-[4-(3-Trifluoromethylbenzyloxyimino)piperidine-1-sulfonyl]benzonitrile], the half-maximal inhibitory concentration (IC50) was at most 1000 nM.

As for `O=S(=O)(c1cccc(C(F)(F)F)c1)N1CCC(=NOCc2cccc(C(F)(F)F)c2)CC1` [Example 56, 1-(3-Trifluoromethylbenzenesulfonyl)piperidin-4-one O-(3-trifluoromethylbenzyl)oxime], the IC50 is at most 1000 nM.

For `O=S(=O)(c1ccc(OC(F)(F)F)cc1)N1CCC(=NOCc2cccc(C(F)(F)F)c2)CC1` [Example 58, 1-(4-Trifluoromethoxybenzenesulfonyl)piperidin-4-one O-(3-trifluoromethylbenzyl)oxime], the IC50 was at most 1000 nM.

Regarding `O=S(=O)(c1cccc(OC(F)(F)F)c1)N1CCC(=NOCc2cccc(C(F)(F)F)c2)CC1` [Example 59, 1-(3-Trifluoromethoxybenzenesulfonyl)piperidin-4-one O-(3-trifluoromethylbenzyl)oxime], the 50% inhibitory concentration (IC50) was at most 1000 nM.

On to `O=S(=O)(c1ccc(F)cc1)N1CCC(=NOCc2cccc(C(F)(F)F)c2)CC1` [Example 62, 1-(4-Fluorobenzenesulfonyl)piperidin-4-one O-(3-trifluoromethylbenzyl)oxime], for which the IC50 was at most 1000 nM.

As for `O=S(=O)(c1ccccc1F)N1CCC(=NOCc2cccc(C(F)(F)F)c2)CC1` [Example 63, 1-(2-Fluorobenzenesulfonyl)piperidin-4-one O-(3-trifluoromethylbenzyl)oxime], the IC50 was at most 1000 nM.

For `O=S(=O)(c1ccc(Cl)nc1)N1CCC(=NOCc2cccc(C(F)(F)F)c2)CC1` [Example 64, 1-(6-Chloropyridine-3-sulfonyl)piperidin-4-one O-(3-trifluoromethylbenzyl)oxime], the IC50 was at most 1000 nM.

In the case of `CCCCc1ccc(S(=O)(=O)N2CCC(=NOCc3cccc(Cl)c3)CC2)cc1` [Example 65, 1-(4-Butylbenzenesulfonyl)piperidin-4-one O-(3-chlorobenzyl)oxime], the half-maximal inhibitory concentration (IC50) was at most 1000 nM.

Turning to `CCCCc1ccc(S(=O)(=O)N2CCC(=NOCc3ccccc3)CC2)cc1` [Example 67, 1-(4-Butylbenzenesulfonyl)piperidin-4-one O-benzyloxime], the half-inhibitory concentration (IC50) was at most 1000 nM.

For the molecule `CCCCc1ccc(S(=O)(=O)N2CCC(=NOCc3ccccn3)CC2)cc1` [Example 68, 1-(4-Butylbenzenesulfonyl)piperidin-4-one O-pyridin-2-ylmethyloxime], the IC50 is at most 1000 nM.

In the case of `CCCCc1ccc(S(=O)(=O)N2CCC(=NOCc3ccnc(Cl)c3)CC2)cc1` [Example 69, 1-(4-Butylbenzenesulfonyl)piperidin-4-one O-(2-chloropyridin-4-ylmethyl)oxime], the IC50 is at most 1000 nM.

Regarding `CCCCc1ccc(S(=O)(=O)N2CCC(=NOCc3cccnc3)CC2)cc1` [Example 70, 1-(4-Butylbenzenesulfonyl)piperidin-4-one O-pyridin-3-ylmethyloxime], the IC50 was at most 1000 nM.

Take `CCCCc1ccc(S(=O)(=O)N2CCC(=NOCc3ccncc3)CC2)cc1` [Example 71, 1-(4-Butylbenzenesulfonyl)piperidin-4-one O-pyridin-4-ylmethyloxime]: the IC50 was at most 1000 nM.

For the molecule `CCCCc1ccc(S(=O)(=O)N2CCC(=NOCc3ccc(Cl)cc3)CC2)cc1` [Example 72, 1-(4-Butylbenzenesulfonyl)piperidin-4-one O-(4-chlorobenzyl)oxime], the IC50 was at most 1000 nM.

For `CCCCc1ccc(S(=O)(=O)N2CCC(=NOCc3cc(Cl)ccn3)CC2)cc1` [Example 73, 1-(4-Butylbenzenesulfonyl)piperidin-4-one O-(4-chloropyridin-2-ylmethyl)oxime], the IC50 is at most 1000 nM.

As to `CCCCc1ccc(S(=O)(=O)N2CCC(=NOC(C)c3cccc(C(F)(F)F)c3)CC2)cc1` (stereo not drawn) [Example 74, 1-(4-Butylbenzenesulfonyl)piperidin-4-one O-[1-(3-trifluoromethylphenyl)ethyl]oxime], the IC50 was at most 1000 nM.

Consider `CCCCc1ccc(S(=O)(=O)N2CCC(=NOCc3cccc(Cl)n3)CC2)cc1` [Example 75, 1-(4-Butylbenzenesulfonyl)piperidin-4-one O-(6-chloropyridin-2-ylmethyl)oxime], for which the concentration for half-maximal inhibition (IC50) is at most 1000 nM.

As for `CCCCc1ccc(S(=O)(=O)N2CCC(=NOCc3cccc(OC)n3)CC2)cc1` [Example 76, 1-(4-Butylbenzenesulfonyl)piperidin-4-one O-(6-methoxypyridin-2-ylmethyl)oxime], the IC50 is at most 1000 nM.

With `CCCCc1ccc(S(=O)(=O)N2CCC(=NOCc3ccccc3C(F)(F)F)CC2)cc1` [Example 78, 1-(4-Butylbenzenesulfonyl)piperidin-4-one O-(2-trifluoromethylbenzyl)oxime], the IC50 was at most 1000 nM.

Turning to `CCCCc1ccc(S(=O)(=O)N2CCC(=NOCc3cccc(OC(F)(F)F)c3)CC2)cc1` [Example 79, 1-(4-Butylbenzenesulfonyl)piperidin-4-one O-(3-trifluoromethoxybenzyl)oxime], the IC50 was at most 1000 nM.

Regarding `CCCCc1ccc(S(=O)(=O)N2CCC(=NOCc3cccc(OC)c3)CC2)cc1` [Example 80, 1-(4-Butylbenzenesulfonyl)piperidin-4-one O-(3-methoxybenzyl)oxime], the IC50 is at most 1000 nM.

`CCCCc1ccc(S(=O)(=O)N2CCC(=NOCc3ccc(F)c(C(F)(F)F)c3)CC2)cc1` [Example 81, 1-(4-Butylbenzenesulfonyl)piperidin-4-one O-(4-fluoro-3-trifluoromethylbenzyl)oxime]: the IC50 was at most 1000 nM.

On to `CCCCc1ccc(S(=O)(=O)N2CCC(=NOCC3CCCCC3)CC2)cc1` [Example 82, 1-(4-Butylbenzenesulfonyl)piperidin-4-one O-cyclohexylmethyloxime], for which the IC50 is at most 1000 nM.

For `Nc1ccccc1S(=O)(=O)N1CCC(=NOCc2cccc(C(F)(F)F)c2)CC1` [Example 85, 1-(2-Aminobenzenesulfonyl)piperidin-4-one O-(3-trifluoromethylbenzyl)oxime], the IC50 was at most 1000 nM.

Consider `CCOc1ccc(S(=O)(=O)N2CCC(=NOCc3cccc(C(F)(F)F)c3)CC2)cc1` [Example 91, 1-(4-Ethoxybenzenesulfonyl)piperidin-4-one O-(3-trifluoromethylbenzyl)oxime], for which the half-inhibitory concentration (IC50) is at most 1000 nM.

Consider `CC(C)Oc1ccc(S(=O)(=O)N2CCC(=NOCc3cccc(C(F)(F)F)c3)CC2)cc1` [Example 93, 1-(4-Isopropoxybenzenesulfonyl)piperidin-4-one O-(3-trifluoromethylbenzyl)oxime], for which the concentration for half-maximal inhibition (IC50) is at most 1000 nM.

In the case of `COCCOc1ccc(S(=O)(=O)N2CCC(=NOCc3cccc(C(F)(F)F)c3)CC2)cc1` [Example 94, 1-[4-(2-Methoxyethoxy)benzenesulfonyl]piperidin-4-one O-(3-trifluoromethylbenzyl)oxime], the IC50 is at most 1000 nM.

Consider `O=S(=O)(c1ccc(OCC2CC2)cc1)N1CCC(=NOCc2cccc(C(F)(F)F)c2)CC1` [Example 95, 1-(4-Cyclopropylmethoxybenzenesulfonyl)piperidin-4-one O-(3-trifluoromethylbenzyl)oxime], for which the 50% inhibitory concentration (IC50) is at most 1000 nM.
